Data: patent US5334757A, “2-(2,3-dicarboxycyclopropyl) glycine and method for producing the same” (Suntory Limited, priority 1991, dated 1994)
pIC50: −log10 of the molar value. “Also recorded” adds a separate entry of the source. Like-named read-outs stand apart in the source and are kept apart here.

What was measured:
non-NMDA type receptors = details: Tetrahedron Letters 31 (28), 4049-4052 (1990); Brain Res. 550, 152-156 (1991); cited from earlier work
NMDA type receptors = details: Japanese Patent Laid-Open No. 093563/1991; cited from earlier work
[1] = tested on: monosynaptic reflex in the newborn rat spinal cord preparation; details: reported value for Baclofen, cited from earlier work
[2] = tested on: newborn rat spinal cord preparation; assay: Measurement of depolarizing activity, newborn rat spinal cord preparation; type: cell-based; details: relative to L-glutamic acid = 1
[3] = tested on: monosynaptic reflex in the newborn rat spinal cord preparation; assay: Determination of monosynaptic reflex inhibition activity in the newborn rat spinal cord preparation; parameters: species or system newborn Wister rat; details: for concentration inhibiting (50%) monosynaptic reflex relative to the IC50 of Baclofen: as multiple of IC50 of Baclofen; for monosynaptic reflex inhibition (in words) / pIC50: newborn rat spinal cord preparation; for pIC50: read-out: IC50 (50% inhibitory concentration), monosynaptic reflex inhibition
Description: The spinal cord of a newborn Wister rat was taken out, as encircled by the spinal column, under etherization.
A single stimulation was applied to a posterior root via a suction electrode and the anterior root reflection potential of the corresponding anterior root was recorded.
DCG-I and DCG-II at various concentration were added to the perfusion solution and the monosynaptic reflexes thus caused were measured.

NMDA receptors = assay: Depolarization under perfusion with CPP (NMDA receptor agonism); type: cell-based, newborn rat; details: for depolarization on adding CPP: 3×10^-5 M CPP perfused; for NMDA type agonistic activity: electrophysiological assay, newborn rat spinal cord preparation

In the case of `N[C@H](C(=O)O)[C@@H]1[C@@H](COCc2ccccc2)[C@@H]1C(=O)O` [(2S,1'R,2'R,3'R)-2-(2-carboxy-3-benzyloxymethylcyclopropyl)glycine], the “non-NMDA type agonist activity” value (non-NMDA type receptors) is given as “agonists of the non-NMDA type”.
For `COC[C@H]1[C@H](C(=O)O)[C@@H]1[C@H](N)C(=O)O` [(2S,1'R,2'R,3'R)-2-(2-carboxy-3-methoxymethylcyclopropyl)glycine], the “non-NMDA type agonist activity” value (non-NMDA type receptors) is listed as “agonists of the non-NMDA type”.
In the case of `N[C@H](C(=O)O)[C@@H]1C[C@@H]1C(=O)O` [(2S,1'R,2'S)-2-(2-carboxycyclopropyl)glycine], the “NMDA type agonist activity” value (NMDA type receptors) is listed as “potent agonist of the NMDA type superior to NMDA”.
For `NCC(CC(=O)O)c1ccc(Cl)cc1` (stereo not drawn) [Baclofen], the IC50 ([1]; in nM) is listed as about 500 nM and the pIC50 [1] is listed as about 6.30.
For `N[C@H](C(=O)O)C1[C@@H](C(=O)O)[C@@H]1C(=O)O` (stereo partly drawn) [DCG-I, (2S,1'R,2'R,3'R)-2-(2,3-dicarboxycyclopropyl)glycine], the Activity ratio [2] was 33, the “concentration inhibiting (50%) monosynaptic reflex relative to the IC50 of Baclofen” value [3] was “about 1/20” and the “monosynaptic reflex inhibition (in words)” value [3] was “selectively inhibit monosynaptic reflex even at a low concentration”. The pIC50 [3] was 7.22, the “depolarization on adding CPP” value (NMDA receptors) was “completely inhibited” and the “NMDA type agonistic activity” value (NMDA receptors) was “agonists for NMDA receptors; also recorded: agonist of the NMDA type”.
In the case of `N[C@H](C(=O)O)C1[C@H](C(=O)O)[C@H]1C(=O)O` (stereo partly drawn) [DCG-II, (2S,1'S,2'S,3'S)-2-(2,3-dicarboxycyclopropyl)glycine], the Activity ratio [2] was 0.5, the “concentration inhibiting (50%) monosynaptic reflex relative to the IC50 of Baclofen” value [3] was “twice” and the “monosynaptic reflex inhibition (in words)” value [3] was “selectively inhibit monosynaptic reflex even at a low concentration”. The pIC50 [3] was 6.00, the “depolarization on adding CPP” value (NMDA receptors) was “completely inhibited” and the “NMDA type agonistic activity” value (NMDA receptors) was “agonists for NMDA receptors; also recorded: only a week agonistic activity of the NMDA type”.
`N[C@@H](CCC(=O)O)C(=O)O` [L-glutamic acid, reference compound] showed an Activity ratio [2] of 1.
